From publication PMC4768138, “Biliverdin targets enolase and eukaryotic initiation factor 2 (eIF2α) to reduce the growth of intraerythrocytic development of the malaria parasite Plasmodium falciparum” (Scientific Reports, 2016)

B1: Plasmodium falciparum enolase (enzyme, UniProt Q8IJN7 1-446, looked up)
chain: MAHVITRINAREILDSRGNPTVEVDLETNLGIFRAAVPSGASTGIYEALELRDNDKSRYLGKGVQKAIKNINEIIAPKLIGMNCTEQKKIDNLMVEELDGSKNEWGWSKSKLGANAILAISMAVCRAGAAANKVSLYKYLAQLAGKKSDQMVLPVPCLNVINGGSHAGNKLSFQEFMIVPVGAPSFKEALRYGAEVYHTLKSEIKKKYGIDATNVGDEGGFAPNILNANEALDLLVTAIKSAGYEGKVKIAMDVAASEFYNSENKTYDLDFKTPNNDKSLVKTGAQLVDLYIDLVKKYPIVSIEDPFDQDDWENYAKLTAAIGKDVQIVGDDLLVTNPTRITKALEKNACNALLLKVNQIGSITEAIEACLLSQKNNWGVMVSHRSGETEDVFIADLVVALRTGQIKTGAPCRSERNAKYNQLLRIEESLGNNAVFAGEKFRLQLN
notes: Enolase of Plasmodium falciparum, expressed from the P. falciparum enolase-pETTrx-1a plasmid; the abstract calls it recombinant full-length Plasmodium enolase; The His-tag-thioredoxin was removed by TEV protease; also called Pf enolase; P. falciparum enolase; source: E. coli Rosetta (DE3), purified (HisTrap, TEV digestion, second HisTrap, Superdex 200)

Key:
[1] = biological target: T1, P. falciparum enolase (Pf enolase) (Plasmodium falciparum, UniProt Q8IJN7); assay: ITC with purified enzyme (n = […], ΔG −[…] Kcal/mol, Kd not given); IC50 from enzyme inhibition assay; assay type: biochemical
T1 construct: gene ENO; recombinant full-length Plasmodium enolase, expressed in E. coli, His-tag-thioredoxin removed by TEV protease

[2] = biological target: the molecule itself; assay: SEC; Superdex 200 16/60, 20 mM Tris-HCl pH 8.0, 200 mM NaCl; single symmetric peak of the purified recombinant protein

Molecule | IC50 [1] [µM] | stoichiometry N [2]
C=CC1=C(C)/C(=C/C2=NC(=C\c3[nH]c(/C=C4\NC(=O)C(C)=C4C=C)c(C)c3CCC(=O)O)/C(CCC(=O)O)=C2C)NC1=O [BV, biliverdin] | 27 ± 4 | 
B1 |  | 2
